The source of these data is patent publication US12459922B2 (Gilead Sciences, Inc., priority 2022, dated 2025).

As a reminder, the EC50 is the concentration giving half of the maximal effect.

This assay has as its system endogenous cellular STAT1 (phosphorylated at Tyr701) in NCI-H1373 cells. The assay can be described thus: Phospho-STAT1 (Tyr701) LANCE Ultra TR-FRET Detection Assay. It is filed as cell-based. Particulars: Homo sapiens, NCI-H1373, 48 h, phospho-STAT1 (Tyr701) induction, read-out: NH1373 pSTAT1 EC50. For orientation: TR-FRET usually uses a lanthanide donor and a delayed reading to cut background.
Take `C[C@@H](CCCn1ccc2cc(-c3cc(C(F)(F)F)c(N)cn3)c(F)cc2c1=O)Nc1cn[nH]c(=O)c1C(F)(F)F` [Example 97, (S)-6-(5-amino-4-(trifluoromethyl)pyridin-2-yl)-7-fluoro-2-(4-((6-oxo-5-(trifluoromethyl)-1,6-dihydropyridazin-4-yl)amino)pentyl)isoquinolin-1(2H)-one]: the EC50 was found to be 67.3 nM.
In the case of `C[C@@H](CCCn1ccc2cc(-c3nc(N)c4c(n3)C(C)(C)OC4)c(F)cc2c1=O)Nc1cn[nH]c(=O)c1C(F)(F)F` [Example 358, (S)-6-(4-amino-7,7-dimethyl-5,7-dihydrofuro[3,4-d]pyrimidin-2-yl)-7-fluoro-2-(4-((6-oxo-5-(trifluoromethyl)-1,6-dihydropyridazin-4-yl)amino)pentyl)isoquinolin-1(2H)-one] it was 1330 nM; in that of `CC[C@@H](CCCn1ccc2cc(-c3ncc(C(F)(F)F)cn3)c(F)c(F)c2c1=O)Nc1cn[nH]c(=O)c1C(F)(F)F` [Example 353, (S)-7,8-difluoro-2-(4-((6-oxo-5-(trifluoromethyl)-1,6-dihydropyridazin-4-yl)amino)hexyl)-6-(5-(trifluoromethyl)pyrimidin-2-yl)isoquinolin-1(2H)-one], 16.1 nM.
As for `C[C@@H](CC(F)(F)Cn1ccc2cc(-c3ncc(C(F)(F)F)cn3)c(F)cc2c1=O)Nc1cn[nH]c(=O)c1C(F)(F)F` [Example 89, 2-[(4S)-2,2-difluoro-4-[[6-oxo-5-(trifluoromethyl)-1H-pyridazin-4-yl]amino]pentyl]-7-fluoro-6-[5-(trifluoromethyl)pyrimidin-2-yl]isoquinolin-1-one], the figure is 40.5 nM; as for `Nc1nc(-c2cc3ncn(CCC[C@H](COC(F)F)Nc4cn[nH]c(=O)c4C(F)(F)F)c(=O)c3cc2F)ccc1C(F)(F)F` [Example 390, (R)-7-(6-amino-5-(trifluoromethyl)pyridin-2-yl)-3-(5-(difluoromethoxy)-4-((6-oxo-5-(trifluoromethyl)-1,6-dihydropyridazin-4-yl)amino)pentyl)-6-fluoroquinazolin-4(3H)-one], 11.7 nM.
As for `N#Cc1ccc(-c2cc3ccn(CCC[C@H](COC(F)F)Nc4cn[nH]c(=O)c4C(F)(F)F)c(=O)c3cc2F)nc1N` [Example 411, (R)-2-amino-6-(2-(5-(difluoromethoxy)-4-((6-oxo-5-(trifluoromethyl)-1,6-dihydropyridazin-4-yl)amino)pentyl)-7-fluoro-1-oxo-1,2-dihydroisoquinolin-6-yl)nicotinonitrile], the figure is 5.28 nM; as for `O=c1[nH]ncc(N2CC(F)(F)C[C@H]2CCCn2ccc3cc(-c4ncc(C(F)(F)F)cn4)c(F)cc3c2=O)c1C(F)(F)F` [Example 139, 2-[3-[(2R)-4,4-difluoro-1-[6-oxo-5-(trifluoromethyl)-1H-pyridazin-4-yl]pyrrolidin-2-yl]propyl]-7-fluoro-6-[5-(trifluoromethyl)pyrimidin-2-yl]isoquinolin-1-one], 64.8 nM; as for `C[C@@H](CCCn1ccc2cc(-c3ncc(C(F)(F)F)cc3N)c(F)cc2c1=O)Nc1cn[nH]c(=O)c1C(F)(F)F` [Example 328, (S)-6-(3-amino-5-(trifluoromethyl)pyridin-2-yl)-7-fluoro-2-(4-((6-oxo-5-(trifluoromethyl)-1,6-dihydropyridazin-4-yl)amino)pentyl)isoquinolin-1(2H)-one], 78.6 nM.
As to `CC(C)(O)c1cnc(-c2cc3ccn(C[C@@H]4CCC[C@H](Nc5cn[nH]c(=O)c5C(F)(F)F)C4)c(=O)c3cc2F)cn1` [Example 267, 7-fluoro-6-(5-(2-hydroxypropan-2-yl)pyrazin-2-yl)-2-(((1R,3S)-3-((6-oxo-5-(trifluoromethyl)-1,6-dihydropyridazin-4-yl)amino)cyclohexyl)methyl)isoquinolin-1(2H)-one], the EC50 was 80.2 nM.
On to `O=c1[nH]ncc(N[C@H]2CCC[C@@H](Cn3ccc4cc(-c5ncc(C6CC6)cn5)c(F)cc4c3=O)C2)c1C(F)(F)F` [Example 241], for which the EC50 was determined as 6.38 nM.
As for `O=c1[nH]ncc(N[C@H](CCCn2ccc3cc(-c4ncc(C(F)F)cn4)c(F)c(F)c3c2=O)COC(F)F)c1C(F)(F)F` [Example 388, (R)-2-(5-(difluoromethoxy)-4-((6-oxo-5-(trifluoromethyl)-1,6-dihydropyridazin-4-yl)amino)pentyl)-6-(5-(difluoromethyl)pyrimidin-2-yl)-7,8-difluoroisoquinolin-1(2H)-one], the figure is 2.74 nM.
In the case of `Nc1nc(-c2cc3ccn(CCC[C@H](COC(F)F)Nc4cn[nH]c(=O)c4C(F)(F)F)c(=O)c3c(F)c2F)ncc1C(F)(F)F` [Example 389, (R)-6-(4-amino-5-(trifluoromethyl)pyrimidin-2-yl)-2-(5-(difluoromethoxy)-4-((6-oxo-5-(trifluoromethyl)-1,6-dihydropyridazin-4-yl)amino)pentyl)-7,8-difluoroisoquinolin-1(2H)-one] it was 5.14 nM.
In the case of `N#Cc1cn(C[C@@H]2CCC[C@H](Nc3cn[nH]c(=O)c3C(F)(F)F)C2)c(=O)c2cc(F)c(-c3ncc(C(F)(F)F)cn3)cc12` [Example 483, 7-fluoro-1-oxo-2-(((1R,3S)-3-((6-oxo-5-(trifluoromethyl)-1,6-dihydropyridazin-4-yl)amino)cyclohexyl)methyl)-6-(5-(trifluoromethyl)pyrimidin-2-yl)-1,2-dihydroisoquinoline-4-carbonitrile] it was 4.71 nM.
Consider `Nc1nc(-c2cc3ncn(CCC[C@@H](Nc4cn[nH]c(=O)c4C(F)(F)F)C4CC4)c(=O)c3cc2F)ncc1C(F)(F)F` [Example 469, 7-[4-amino-5-(trifluoromethyl)pyrimidin-2-yl]-3-[(4R)-4-cyclopropyl-4-[[6-oxo-5-(trifluoromethyl)-1H-pyridazin-4-yl]amino]butyl]-6-fluoro-quinazolin-4-one], for which the EC50 was determined as 14.5 nM.
`[2H]C([2H])([2H])OC[C@@H](CCCn1cnc2cc(-c3ncc(C(F)(F)F)cn3)c(F)cc2c1=O)Nc1cn[nH]c(=O)c1C(F)(F)F` [Example 430, 6-fluoro-3-[(4R)-4-[[6-oxo-5-(trifluoromethyl)-1H-pyridazin-4-yl]amino]-5-(trideuteriomethoxy)pentyl]-7-[5-(trifluoromethyl)pyrimidin-2-yl]quinazolin-4-one]: the concentration giving a half-maximal response (EC50) was 2.63 nM.
`COc1ccc(-c2cc3ccn(CCC[C@H](C)Nc4cn[nH]c(=O)c4C(F)(F)F)c(=O)c3cc2F)nc1N` [Example 195, (S)-6-(6-amino-5-methoxypyridin-2-yl)-7-fluoro-2-(4-((6-oxo-5-(trifluoromethyl)-1,6-dihydropyridazin-4-yl)amino)pentyl)isoquinolin-1(2H)-one]: the 50% effective concentration (EC50) is 8.14 nM.
In the case of `O=c1[nH]ncc(N[C@H](CCCn2ccc3cc(-c4nc5ccccn5n4)c(F)cc3c2=O)COC(F)F)c1C(F)(F)F` [Example 489, (R)-6-([1,2,4]triazolo[1,5-a]pyridin-2-yl)-2-(5-(difluoromethoxy)-4-((6-oxo-5-(trifluoromethyl)-1,6-dihydropyridazin-4-yl)amino)pentyl)-7-fluoroisoquinolin-1(2H)-one] it was 0.51 nM; in that of `O=c1[nH]ncc(N[C@H]2CCC[C@@H](Cn3ccc4cc(-c5ccc(C(F)(F)F)cn5)c(F)cc4c3=O)C2)c1C(F)(F)F` [Example 268, 7-fluoro-2-(((1R,3S)-3-((6-oxo-5-(trifluoromethyl)-1,6-dihydropyridazin-4-yl)amino)cyclohexyl)methyl)-6-(5-(trifluoromethyl)pyridin-2-yl)isoquinolin-1(2H)-one], 13 nM.
